Assay results taken from patent US10975068B2, “6-aminopyridin-3-yl thiazoles as modulators of RORγT” (Janssen Pharmaceutica NV, priority 2016, dated 2021).
Read-outs that look alike come from different tables or passages of the source.

How the values were obtained:
full-length human RORγt = full-length human RORγt (Homo sapiens (Human), UniProt P51449); test: RORγt (full-length human) reporter assay, Conditions A; type: cell-based; details: for IC50: read-out: RORγt (FL) Reporter Assay A, IC50; for inhibition at 6 µM: read-out: RORγt (FL) Reporter Assay A, % inhibition @ 6 μM; for RORγt (FL) Reporter Assay A, % inhibition (value marked **): marked **: footnote not shown
From the text: RORγt (Full-Length Human) Reporter Assay:
Cells used in this assay were transiently co-transfected with three different plasmids, one expressing the GAL4-DNA binding domain (DBD)-RORγt fusion protein under control of a CMV promoter (NH2-Gal4-DBD:RORC-COOH in pCMV-BD, Stratagene #211342), and two reporter plasmids—the firefly luciferase reporter under control of a GAL4 promoter (pFR-Luc 2×GAL4) and Renilla luciferase reporter under control of CMV promoter (pRL-CMV, Promega # E2261). The full-length coding sequence was used for human RORγt, i.e., nucleotides 142-1635 of human RORγt, transcript variant 2, NCBI Accession: NM_001001523.1 (SEQ ID NO:1). HEK293T cells were plated at 35000 per well in 96-well plate in medium of MEM with 8.6% FBS. After 18-22 hours incubation, the transfection was carried out by using a PEI solution with 170.5 ng total DNA/well (50 ng pCMV-BD-ROR plus 20 ng of pFR-Luc reporter and 0.5 ng of pRL-CMV reporter plus 100 ng Carrier DNA (Clontech #630440) for each well). 4-6 hours after transfection, cells were treated with compounds for overnight in the medium with final concentration of FBS 1.1% and DMSO 0.1%. After overnight (16 to 20 hours) incubation, media were removed and cells were lysed with 20 μL 1× Passive Lysis Buffer (Promega) for 10-15 minutes. Luminescence was measured using a BMG LUMIstar OPTIMA plate reader, after addition of 75 μL/well firefly luciferase buffer, followed by 75 μL/well Renilla luciferase buffer. To calculate the effect of compounds on RORγt activity, firefly values were normalized against values of DMSO only and values of reference compound at saturating concentration, then further normalized against Renilla signals. IC50s were generated by plotting final Renilla normalized data against compound concentration and percent inhibition was calculated against DMSO control.

[1] = target: human RORγt ligand binding domain (RORγt LBD) (Homo sapiens (Human), UniProt P51449); test: RORγt ThermoFluor® assay (thermal shift binding); details: read-out: ThermoFluor® Assay, Kd
Procedure, shortened: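 His-tagged human RORγt LBD (0.065 mg/mL) with 60 μM 1,8-ANS in 100 mM Hepes pH 7.0, 10 mM NaCl, 2.5 mM GSH, 0.002% Tween-20 was heated at 1 °C/min.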

Sequence of full-length human RORγt (P51449 other isoform, or with tags, fused parts or gaps): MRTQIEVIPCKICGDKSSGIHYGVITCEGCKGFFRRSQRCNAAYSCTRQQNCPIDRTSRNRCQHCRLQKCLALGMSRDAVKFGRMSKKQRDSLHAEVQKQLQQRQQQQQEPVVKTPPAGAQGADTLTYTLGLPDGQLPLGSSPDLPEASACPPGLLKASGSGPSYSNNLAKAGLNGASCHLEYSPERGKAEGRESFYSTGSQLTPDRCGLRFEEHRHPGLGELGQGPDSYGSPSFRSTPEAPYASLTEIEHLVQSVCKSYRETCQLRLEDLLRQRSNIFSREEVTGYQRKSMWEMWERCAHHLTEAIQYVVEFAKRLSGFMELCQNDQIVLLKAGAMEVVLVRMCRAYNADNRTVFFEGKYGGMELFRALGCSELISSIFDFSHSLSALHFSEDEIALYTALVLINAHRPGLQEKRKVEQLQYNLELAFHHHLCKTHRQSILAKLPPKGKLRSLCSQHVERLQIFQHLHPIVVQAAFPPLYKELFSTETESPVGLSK
Sequence of human RORγt ligand binding domain (RORγt LBD) (P51449 other isoform, or with tags, fused parts or gaps): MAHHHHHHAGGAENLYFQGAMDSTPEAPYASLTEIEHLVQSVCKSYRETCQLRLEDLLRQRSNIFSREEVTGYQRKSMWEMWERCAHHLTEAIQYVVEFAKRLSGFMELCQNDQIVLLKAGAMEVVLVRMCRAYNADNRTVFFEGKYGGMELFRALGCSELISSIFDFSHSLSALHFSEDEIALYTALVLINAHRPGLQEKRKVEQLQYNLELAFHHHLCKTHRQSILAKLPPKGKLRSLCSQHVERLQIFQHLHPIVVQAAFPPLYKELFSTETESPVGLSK

SMILES | IC50 (full-length human RORγt; Conditions A) | inhibition at 6 µM (full-length human RORγt; Conditions A) | Kd [1] | IC50 (full-length human RORγt; HEK293T cells) | RORγt (FL) Reporter Assay A, % inhibition (value marked **) (full-length human RORγt; Conditions A)
CC(C)(O)CNC(=O)c1nc(C(=O)N2CCC(F)CC2)c(-c2cnc(NC3CC(F)(F)C3)c(C(F)(F)F)c2)s1 [Example 16, 5-(6-((3,3-Difluorocyclobutyl)amino)-5-(trifluoromethyl)pyridin-3-yl)-4-(4-fluoropiperidine-1-carbonyl)-N-(2-hydroxy-2-methylpropyl)thiazole-2-carboxamide] | 470 nM | 105% | 130 nM | – | –
C[C@H]1CCCCN1C(=O)c1nc(C(=O)NCC(C)(C)O)sc1-c1cnc(NC2CCCCC2)c(C(F)(F)F)c1 [Example 4, (S)-5-(6-(Cyclohexylamino)-5-(trifluoromethyl)pyridin-3-yl)-N-(2-hydroxy-2-methylpropyl)-4-(2-methylpiperidine-1-carbonyl)thiazole-2-carboxamide] | 9 nM | 106% | 0.98 nM | – | –
C[C@H]1CCCCN1C(=O)c1nc(C(=O)NCC(C)(C)O)sc1-c1cnc(NC2CCCCC2)cc1C(F)(F)F [Example 5, (S)-5-(6-(Cyclohexylamino)-4-(trifluoromethyl)pyridin-3-yl)-N-(2-hydroxy-2-methylpropyl)-4-(2-methylpiperidine-1-carbonyl)thiazole-2-carboxamide] | 9 nM | 104% | 0.25 nM | – | –
CC(C)(O)CNC(=O)c1nc(C(=O)N2CCC(F)CC2)c(-c2cnc(NCCC(F)(F)F)c(C(F)(F)F)c2)s1 [Example 7, 4-(4-Fluoropiperidine-1-carbonyl)-N-(2-hydroxy-2-methylpropyl)-5-(5-(trifluoromethyl)-6-((3,3,3-trifluoropropyl)amino)pyridin-3-yl)thiazole-2-carboxamide] | 620 nM | 80% | 230 nM | – | –
CC(C)S(=O)(=O)Nc1cc(C(F)(F)F)c(-c2sc(C(=O)NCC(C)(C)O)nc2C(=O)N2CCC(F)CC2)cn1 [Comparator Example 3, 4-(4-Fluoropiperidine-1-carbonyl)-N-(2-hydroxy-2-methylpropyl)-5-(6-((1-methylethyl)sulfonamido)-4-(trifluoromethyl)pyridin-3-yl)thiazole-2-carboxamide, reference compound] | – | – | 53000 nM | > 6000 nM | –
C[C@H]1CCCCN1C(=O)c1nc(C(=O)NC2CCS(=O)(=O)CC2)sc1-c1cnc(NC2CCCCC2)cc1C(F)(F)F [Example 17, (S)-5-(6-(Cyclohexylamino)-4-(trifluoromethyl)pyridin-3-yl)-N-(1,1-dioxidotetrahydro-2H-thiopyran-4-yl)-4-(2-methylpiperidine-1-carbonyl)thiazole-2-carboxamide] | 9 nM | – | 0.15 nM | – | 95** %
C[C@H]1CC(F)(F)CN1C(=O)c1nc(C(=O)NCC(C)(C)O)sc1-c1cnc(NC2CCCCC2)cc1C(F)(F)F [Example 11, (S)-5-(6-(Cyclohexylamino)-4-(trifluoromethyl)pyridin-3-yl)-4-(4,4-difluoro-2-methylpyrrolidine-1-carbonyl)-N-(2-hydroxy-2-methylpropyl)thiazole-2-carboxamide] | 17 nM | – | 2.6 nM | – | 107** %
CC(C)(O)CNC(=O)c1nc(C(=O)N2CCC(F)CC2)c(-c2cnc(NC3CCCCC3)cc2C(F)F)s1 [Example 14, 5-(6-(Cyclohexylamino)-4-(difluoromethyl)pyridin-3-yl)-4-(4-fluoropiperidine-1-carbonyl)-N-(2-hydroxy-2-methylpropyl)thiazole-2-carboxamide] | 76 nM | 105% | 33 nM | – | –
CC(C)(O)CNC(=O)c1nc(C(=O)N2CCC(F)CC2)c(-c2cnc(NC3CC(F)(F)C3)cc2C(F)(F)F)s1 [Example 21, 5-(6-((3,3-Difluorocyclobutyl)amino)-4-(trifluoromethyl)pyridin-3-yl)-4-(4-fluoropiperidine-1-carbonyl)-N-(2-hydroxy-2-methylpropyl)thiazole-2-carboxamide] | – | 100% | – | – | –

Results, then the molecule that gave them:

IC50 (full-length human RORγt; Conditions A) | inhibition at 6 µM (full-length human RORγt; Conditions A) | Kd [1] | IC50 (full-length human RORγt; HEK293T cells) | RORγt (FL) Reporter Assay A, % inhibition (value marked **) (full-length human RORγt; Conditions A) | SMILES
700 nM | 88% | – | – | – | COc1cc(-c2sc(C(=O)NCC(C)(C)O)nc2C(=O)N2CCC(F)CC2)cnc1NC1CCCCC1 [Example 59, 5-(6-(Cyclohexylamino)-5-methoxypyridin-3-yl)-4-(4-fluoropiperidine-1-carbonyl)-N-(2-hydroxy-2-methylpropyl)thiazole-2-carboxamide]
78 nM | 106% | 79 nM | – | – | CC(C)(O)CNC(=O)c1nc(C(=O)N2CCC(F)CC2)c(-c2cnc(NC3CCCCC3)cc2C#N)s1 [Example 57, 5-(4-Cyano-6-(cyclohexylamino)pyridin-3-yl)-4-(4-fluoropiperidine-1-carbonyl)-N-(2-hydroxy-2-methylpropyl)thiazole-2-carboxamide]
160 nM | 98% | 12 nM | – | – | CC(C)(O)CNC(=O)c1nc(C(=O)N2CCC(F)CC2)c(-c2cnc(NC3CCCCC3)c(OC(F)F)c2)s1 [Example 62, 5-(6-(Cyclohexylamino)-5-(difluoromethoxy)pyridin-3-yl)-4-(4-fluoropiperidine-1-carbonyl)-N-(2-hydroxy-2-methylpropyl)thiazole-2-carboxamide]
150 nM | 85% | 41 nM | – | – | Cc1c(-c2sc(C(=O)NCC(C)(C)O)nc2C(=O)N2CCC(F)CC2)cnc(NC2CCCCC2)c1F [Example 66, 5-(6-(Cyclohexylamino)-5-fluoro-4-methylpyridin-3-yl)-4-(4-fluoropiperidine-1-carbonyl)-N-(2-hydroxy-2-methylpropyl)thiazole-2-carboxamide]
130 nM | 108% | 36 nM | – | – | CCc1cc(NC2CCCCC2)ncc1-c1sc(C(=O)NCC(C)(C)O)nc1C(=O)N1CCC(F)CC1 [Example 70, 5-(6-(cyclohexylamino)-4-ethylpyridin-3-yl)-4-(4-fluoropiperidine-1-carbonyl)-N-(2-hydroxy-2-methylpropyl)thiazole-2-carboxamide]
910 nM | 84% | 440 nM | – | – | CC(C)(O)CNC(=O)c1nc(C(=O)N2CCC(F)CC2)c(-c2cnc(NC3CC4(C3)CC(F)(F)C4)cc2C(F)(F)F)s1 [Example 22, 5-(6-((6,6-Difluorospiro[3.3]heptan-2-yl)amino)-4-(trifluoromethyl)pyridin-3-yl)-4-(4-fluoropiperidine-1-carbonyl)-N-(2-hydroxy-2-methylpropyl)thiazole-2-carboxamide]
250 nM | 96% | – | – | – | COc1cc(NC2CCCCC2)ncc1-c1sc(C(=O)NCC(C)(C)O)nc1C(=O)N1CCC(F)CC1 [Example 63, 5-(6-(Cyclohexylamino)-4-methoxypyridin-3-yl)-4-(4-fluoropiperidine-1-carbonyl)-N-(2-hydroxy-2-methylpropyl)thiazole-2-carboxamide]
210 nM | 103% | – | – | – | CC(C)c1cc(NC2CCCCC2)ncc1-c1sc(C(=O)NCC(C)(C)O)nc1C(=O)N1CCC(F)CC1 [Example 65, 5-(6-(Cyclohexylamino)-4-isopropylpyridin-3-yl)-4-(4-fluoropiperidine-1-carbonyl)-N-(2-hydroxy-2-methylpropyl)thiazole-2-carboxamide]
